Holding throughout (type): physicochemical
Data set [1] in a line: Solubility in water. The following applies: thermodynamic from solid, 25° C., maximum 10 mg/ml of parent free form. The procedure:
This was measured by suspending enough compound in 0.25 ml of solvent (water) to give a maximum final concentration of 10 mg/ml of the parent free form of the compound. The suspension was equilibrated at 25° C. for 24 hrs followed by a pH check and filtration through a glass fibre C 96 well plate. The filtrate is then diluted down 101×. Quantitation was by HPLC with reference to a standard dissolved in DMSO at approx 0.1 mg/ml. Different volumes of the standard, diluted and undiluted tests were injected. The solubility was calculated by integration of the peak area found at the same retention time as the peak maximum in the standard injection. If there is sufficient solid in the filter plate the XRPD is normally checked for phase changes, hydrate formation, amorphization, crystallization etc.

The nature of data set [2]: Solubility in organic solvents. Particulars: organic solvent or mixture, read-out: Min solvent required (solubility). The procedure:
The solubility of the compound of formula (I) was determined in a wide range of organic solvents.

Data set [3] can be described thus: pKa determination (potentiometric titration, Sirius GlpKa). Particulars: MeOH:H2O mixtures, extrapolated to 0% co-solvent, free base. The procedure: Two basic centres of the free base of the compound were measured for pKa. […] The pKa of the basic centre of the imidazole ring was measured to be 4.53.
pka determination was performed on a Sirius GlpKa instrument with D-PAS attachment. Measurements were made by potentiometric titration in MeOH:H2O mixtures at 25° C. The titration media was ionic strength adjusted with 0.15M KCl. The values found in the MeOH:H2O mixtures were extrapolated to 0% co-solvent via a Yasuda-Shedlovsky extrapolation.

Data set [4] in a line: Solid-state stability study of compound of formula (I) (appearance, HPLC content). The following applies: 34 days. The procedure: Method/Technique. 2 mg samples of compound of formula (I), accurately weighed, were placed in 4-mL clear glass screw-cap vials. Samples were tested at initial and after 34 days stored at 5° C./Ambient Relative Humidity (AMRH) Closed, 30° C./60% RH Closed, 40° C./75% RH Open and 60° C./AMRH Closed.
Samples were inspected visually for appearance. Compound of formula (I) content values were determined by the HPLC method in Table 1. The % weight/weight (% w/w) values were measured relative to standard samples of compound of formula (I) Batch U12438/79/1. The % area values were obtained by dividing the compound of formula (I) peak area by the total peak area.

We go through 2 compounds from patent US8642588B2, “Short-acting benzodiazepine salts and their polymorphic forms” (priority 2006, dated 2014).

As a reminder, the solubility is the dissolved amount per volume that the medium holds. The term pKa denotes the pH at which an ionisable group is half protonated.

≈ marks a conversion by molar mass, not a printed value. Where two headings read alike, the source gives them in different places.

For the compound `COC(=O)CC[C@@H]1N=C(c2ccccn2)c2cc(Br)ccc2-n2c(C)cnc21` [LJC-039-034-1], in data set [1], the solubility at 24 h came out at 7.8 mg/mL (≈ 17.8 mM).
As for `COC(=O)CC[C@@H]1N=C(c2ccccn2)c2cc(Br)ccc2-n2c(C)cnc21` [compound of formula (I), Methyl 3-[(4S)-8-bromo-1-methyl-6-(2-pyridinyl)-4H-imidazol[1,2-a][1,4]benzodiazepin-4-yl]propanoate], the solubility in data set [2] (acetone) turned out to be 214 mg/mL; in data set [2] (acetonitrile) it was 362 mg/mL; in data set [2] (ethanol) it was 324 mg/mL; in data set [2] (ethyl acetate), 218 mg/mL; in data set [2] (methanol), 446 mg/mL; in data set [2] (propan-2-ol), 454 mg/mL. Moreover, the solubility was determined as 311 mg/mL in data set [2] (tetrahydrofuran) and 460 mg/mL in data set [2] (toluene). Further, the pKa in data set [3] (basic centre of the imidazole ring) was 4.53; in data set [3] (basic centre of the pyridine ring), 1.99. For the same compound, the Appearance entry in data set [4] (40 C./75% RH Open) is “Deliquesced yellow mass on bottom”; in data set [4] (60 C./AMRH Closed), “Deliquesced dark yellow to orange”.
